In ChEMBL document CHEMBL1255477, “In vitro properties of BAL30072, a novel siderophore sulfactam with activity against multiresistant gram-negative bacilli” (Antimicrob Agents Chemother, 2010):
In brackets after ≈: the same amount, converted by molar mass. Activity calls are given as the source filed them. The rule behind the calls is not given here.

Tests used:
Klebsiella aerogenes = assay: Antimicrobial activity against Enterobacter aerogenes by broth dilution method; assay type: functional
Citrobacter freundii = assay: Antimicrobial activity against Citrobacter freundii by broth dilution method; assay type: functional
Providencia stuartii = assay: Antimicrobial activity against Providencia stuartii by broth dilution method; assay type: functional
Proteus vulgaris = assay: Antimicrobial activity against Proteus vulgaris by broth dilution method; assay type: functional
Providencia rettgeri [1] = assay: Antimicrobial activity against Providencia rettgeri by broth dilution method; assay type: functional
Escherichia coli [2] = assay: Antimicrobial activity against Escherichia coli by broth dilution method; assay type: functional
Klebsiella oxytoca [3] = assay: Antimicrobial activity against Klebsiella oxytoca by broth dilution method; assay type: functional
Klebsiella pneumoniae [4] = assay: Antimicrobial activity against Klebsiella pneumoniae by broth dilution method; assay type: functional
Proteus penneri = assay: Antimicrobial activity against Proteus penneri by broth dilution method; assay type: functional
Proteus mirabilis = assay: Antimicrobial activity against Proteus mirabilis by broth dilution method; assay type: functional
Serratia marcescens [5] = assay: Antimicrobial activity against Serratia marcescens by broth dilution method; assay type: functional
Acinetobacter sp. = assay: Antimicrobial activity against Acinetobacter sp. by broth dilution method; assay type: functional
Burkholderia sp. = assay: Antimicrobial activity against Burkholderia sp. by broth dilution method; assay type: functional
[6] = system: Stenotrophomonas maltophilia; assay: Antimicrobial activity against Stenotrophomonas maltophilia by broth dilution method; assay type: functional
Enterobacteriaceae = assay: Antimicrobial activity against Enterobacteriaceae by broth dilution method; assay type: functional
Pseudomonas aeruginosa [7] = assay: Antimicrobial activity against Pseudomonas aeruginosa by broth dilution method; assay type: functional
Acinetobacter baumannii [8] = assay: Antimicrobial activity against Acinetobacter baumannii HPA74510 assessed as number of passages required for MIC to rise above 4 times original MIC; assay type: functional
Acinetobacter junii = assay: Antimicrobial activity against Acinetobacter junii 15218 assessed as number of passages required for MIC to rise above 4 times original MIC; assay type: functional
Klebsiella pneumoniae [9] = assay: Antimicrobial activity against Klebsiella pneumoniae 1338665 assessed as number of passages required for MIC to rise above 4 times original MIC; assay type: functional
Pseudomonas aeruginosa [10] = assay: Antimicrobial activity against Pseudomonas aeruginosa BA assessed as number of passages required for MIC to rise above 4 times original MIC; assay type: functional
Pseudomonas aeruginosa [11] = assay: Antimicrobial activity against Pseudomonas aeruginosa 527 assessed as number of passages required for MIC to rise above 4 times original MIC; assay type: functional
[12] = system: Stenotrophomonas maltophilia; assay: Antimicrobial activity against Stenotrophomonas maltophilia 1AC736 assessed as number of passages required for MIC to rise above 4 times original MIC; assay type: functional
Escherichia coli [13] = assay: Antimicrobial activity against Escherichia coli HB101 harboring beta-lactamase TEM-5 by broth dilution method; assay type: functional
Escherichia coli [14] = assay: Antimicrobial activity against Escherichia coli K802N harboring beta-lactamase TEM-3 by broth dilution method; assay type: functional
Escherichia coli [15] = assay: Antimicrobial activity against Escherichia coli CF102 harboring beta-lactamase TEM-3 by broth dilution method; assay type: functional
Klebsiella pneumoniae [16] = assay: Antimicrobial activity against Klebsiella pneumoniae 1357E harboring beta-lactamase TEM-10 by broth dilution method; assay type: functional
Escherichia coli [17] = assay: Antimicrobial activity against Escherichia coli A harboring beta-lactamase CTX-M 15 by broth dilution method; assay type: functional
Klebsiella pneumoniae [18] = assay: Antimicrobial activity against Klebsiella pneumoniae 26768WU harboring beta-lactamase SHV-5 by broth dilution method; assay type: functional
Klebsiella oxytoca [19] = assay: Antimicrobial activity against Klebsiella oxytoca 1028E harboring beta-lactamase K1 by broth dilution method; assay type: functional
Serratia marcescens [20] = assay: Antimicrobial activity against Serratia marcescens S6 harboring beta-lactamase SME-1.AmpC by broth dilution method; assay type: functional
Escherichia coli [21] = assay: Antimicrobial activity against Escherichia coli nmcA harboring beta-lactamase NMCA by broth dilution method; assay type: functional
Klebsiella pneumoniae [22] = assay: Antimicrobial activity against Klebsiella pneumoniae CRE harboring beta-lactamase KPC-2 by broth dilution method; assay type: functional
Klebsiella pneumoniae [23] = assay: Antimicrobial activity against Klebsiella pneumoniae YC harboring beta-lactamase KPC-2,TEM-1and SHV-2 by broth dilution method; assay type: functional
Acinetobacter baumannii [24] = assay: Antimicrobial activity against Acinetobacter baumannii HPA74510 harboring beta-lactamase IMP-4 by broth dilution method; assay type: functional
Pseudomonas aeruginosa [25] = assay: Antimicrobial activity against Pseudomonas aeruginosa HPA10586 harboring beta-lactamase VIM-1 by broth dilution method; assay type: functional
Providencia rettgeri [26] = assay: Antimicrobial activity against Providencia rettgeri J96 harboring beta-lactamase IMP-1 by broth dilution method; assay type: functional
[27] = system: Stenotrophomonas maltophilia; assay: Antimicrobial activity against Stenotrophomonas maltophilia B715 harboring beta-lactamase L1and L2 by broth dilution method; assay type: functional
Escherichia coli [28] = assay: Antimicrobial activity against Escherichia coli Libyien harboring beta-lactamase CMY-2 by broth dilution method; assay type: functional
[29] = Inhibition of Escherichia coli Penicillin-binding protein 1A
[30] = Inhibition of Escherichia coli Penicillin-binding protein 1B
[31] = Inhibition of Escherichia coli Penicillin-binding protein 2
[32] = Inhibition of Escherichia coli Penicillin-binding protein 3
Acinetobacter baumannii [33] = assay: Antimicrobial activity against Acinetobacter baumannii HPA 4737 harboring beta-lactamase OXA-26 by broth dilution method; assay type: functional
Acinetobacter baumannii [34] = assay: Antimicrobial activity against Acinetobacter baumannii HPA I-16 harboring beta-lactamase OXA-27 by broth dilution method; assay type: functional
Escherichia coli [35] = assay: Antimicrobial activity against Escherichia coli W3110 assessed as appearance of spheroplast at 64 ug/mL after 3 hrs by phase-contrast microscopy; assay type: functional, organism-based
Escherichia coli [36] = assay: Antimicrobial activity against Escherichia coli W3110 assessed as appearance of long filaments at 64 ug/mL after 3 hrs by phase-contrast microscopy; assay type: functional, organism-based
[37] = Inhibition of beta-lactamase KPC-2
[38] = Inhibition of Beta-lactamase IMP1
AmpC = AmpC (Escherichia coli, UniProt Q83TT7); assay: Inhibition of Escherichia coli ATCC 25922 AmpC
Acinetobacter baumannii [39] = assay: Antimicrobial activity against Acinetobacter baumannii HPA 327009 harboring beta-lactamase OXA-25 by broth dilution method; assay type: functional
Pseudomonas aeruginosa [40] = assay: microbe, parasite or virus in culture; settings: 18S/H

Chain of AmpC (Q83TT7 whole entry): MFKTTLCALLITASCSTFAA

CO/N=C(\C(=O)N[C@@H]1C(=O)N2C(C(=O)[O-])=C(C[N+]3(C)CCCC3)CS[C@H]12)c1csc(N)n1
MIC90 (Klebsiella aerogenes): 16 µg/mL (≈ 33.3 µM) | MIC50 (Citrobacter freundii): 1 µg/mL (≈ 2.08 µM) | MIC90 (Citrobacter freundii): 4 µg/mL (≈ 8.32 µM) | MIC50 (Providencia stuartii): ≤ 0.06 µg/mL | MIC90 (Providencia stuartii): > 32 µg/mL | MIC50 (Proteus vulgaris): 0.125 µg/mL (≈ 0.26 µM) | MIC90 (Proteus vulgaris): 1 µg/mL (≈ 2.08 µM) | MIC50 (Providencia rettgeri [1]): ≤ 0.06 µg/mL | MIC90 (Providencia rettgeri [1]): > 32 µg/mL | MIC50 (Escherichia coli [2]): 8 µg/mL (≈ 16.6 µM) | MIC90 (Escherichia coli [2]): > 32 µg/mL | MIC50 (Klebsiella oxytoca [3]): 2 µg/mL (≈ 4.16 µM) | MIC90 (Klebsiella oxytoca [3]): 4 µg/mL (≈ 8.32 µM) | MIC50 (Klebsiella pneumoniae [4]): 4 µg/mL (≈ 8.32 µM) | MIC90 (Klebsiella pneumoniae [4]): > 32 µg/mL | MIC50 (Proteus penneri): 0.125 µg/mL (≈ 0.26 µM) | MIC90 (Proteus penneri): 1 µg/mL (≈ 2.08 µM) | MIC50 (Proteus mirabilis): 0.125 µg/mL (≈ 0.26 µM) | MIC90 (Proteus mirabilis): 1 µg/mL (≈ 2.08 µM) | MIC50 (Serratia marcescens [5]): 1 µg/mL (≈ 2.08 µM) | MIC90 (Serratia marcescens [5]): 2 µg/mL (≈ 4.16 µM) | MIC50 (Acinetobacter sp.): 32 µg/mL (≈ 66.6 µM) | MIC90 (Acinetobacter sp.): > 32 µg/mL | MIC50 (Burkholderia sp.): 8 µg/mL (≈ 16.6 µM) | MIC90 (Burkholderia sp.): 16 µg/mL (≈ 33.3 µM) | MIC50 [6]: 16 µg/mL (≈ 33.3 µM) | MIC90 [6]: > 32 µg/mL | MIC50 (Enterobacteriaceae): 4 µg/mL (≈ 8.32 µM) | MIC50 (Pseudomonas aeruginosa [7]): 16 µg/mL (≈ 33.3 µM) | MIC90 (Pseudomonas aeruginosa [7]): 32 µg/mL (≈ 66.6 µM) | Activity (Acinetobacter baumannii [8]): inactive | Activity (Acinetobacter junii): 14 passages | Activity (Klebsiella pneumoniae [9]): inactive | Activity (Pseudomonas aeruginosa [10]): 2 passages | Activity (Pseudomonas aeruginosa [11]): 1 passages | Activity [12]: 1 passages

C[C@H]1[C@H](NC(=O)/C(=N\OC(C)(C)C(=O)O)c2csc(N)n2)C(=O)N1S(=O)(=O)O [AZTREONAM]
MIC50 (Klebsiella aerogenes): 4 µg/mL (≈ 9.19 µM) | MIC90 (Klebsiella aerogenes): > 32 µg/mL | MIC (Citrobacter freundii): > 32 µg/mL | MIC50 (Citrobacter freundii): > 32 µg/mL | MIC90 (Citrobacter freundii): > 32 µg/mL | MIC50 (Escherichia coli [2]): > 32 µg/mL | MIC90 (Escherichia coli [2]): > 32 µg/mL | MIC50 (Klebsiella oxytoca [3]): 16 µg/mL (≈ 36.7 µM) | MIC90 (Klebsiella oxytoca [3]): > 32 µg/mL | MIC50 (Acinetobacter sp.): > 32 µg/mL | MIC90 (Acinetobacter sp.): > 32 µg/mL | MIC (Escherichia coli [13]): 32 µg/mL (≈ 73.5 µM) | MIC (Escherichia coli [14]): > 32 µg/mL | MIC (Escherichia coli [15]): 32 µg/mL (≈ 73.5 µM) | MIC (Klebsiella pneumoniae [16]): > 32 µg/mL | MIC (Escherichia coli [17]): > 32 µg/mL | MIC (Klebsiella pneumoniae [18]): > 32 µg/mL | MIC (Klebsiella oxytoca [19]): > 32 µg/mL | MIC (Serratia marcescens [20]): 16 µg/mL (≈ 36.7 µM) | MIC (Escherichia coli [21]): > 32 µg/mL | MIC (Klebsiella pneumoniae [22]): > 32 µg/mL | MIC (Klebsiella pneumoniae [23]): > 32 µg/mL | MIC (Acinetobacter baumannii [24]): 32 µg/mL (≈ 73.5 µM) | MIC (Pseudomonas aeruginosa [25]): 16 µg/mL (≈ 36.7 µM) | MIC (Providencia rettgeri [26]): 2 µg/mL (≈ 4.59 µM) | MIC [27]: 32 µg/mL (≈ 73.5 µM) | MIC (Escherichia coli [28]): 16 µg/mL (≈ 36.7 µM) | IC50 [29]: > 50 µM | IC50 [30]: > 50 µM | IC50 [31]: > 50 µM | IC50 [32]: 0.023 µM | MIC (Acinetobacter baumannii [33]): 32 µg/mL (≈ 73.5 µM) | MIC (Acinetobacter baumannii [34]): 32 µg/mL (≈ 73.5 µM) | Activity (Escherichia coli [35]): Active | Activity (Escherichia coli [36]): Active | IC50 [37]: > 2500 µM | IC50 [38]: 1100 µM | IC50 (AmpC): 0.06 µM | MIC (Acinetobacter baumannii [39]): 16 µg/mL (≈ 36.7 µM) | MIC (Pseudomonas aeruginosa [40]): > 32 µg/mL
